According to ChEMBL document CHEMBL1201862, “PubChem BioAssay data set” (2004):
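Exposure lasted 48 hours, with cells grown in 96-well plates and compounds tested at five concentrations. Abbreviation: GI50, concentration required for 50% inhibition of growth.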 Activity calls are given as the source filed them. Rule as the data show it: active = GI50 up to about 1.1 µM and inactive = higher.

What was measured:
Assay in all cases: growth of human tumour cells (NCI), 48 h
[1] = system: RPMI-8226
[2] = system: MOLT-4
[3] = system: SK-MEL-5
[4] = system: BT-549
[5] = system: M14
[6] = system: HOP-62
[7] = system: SNB-19
[8] = system: SR
[9] = system: OVCAR-3
[10] = system: Malme-3M
[11] = system: UACC-62
[12] = system: T47D
[13] = system: MDA-MB-435
[14] = system: HCT-116
[15] = system: TK-10
[16] = system: MCF7
[17] = system: MDA-N
[18] = system: HCC 2998
[19] = system: DU-145
[20] = system: PC-3
[21] = system: SW-620
[22] = system: SNB-75
[23] = system: HT-29
[24] = system: KM12
[25] = system: U-251
[26] = system: NCI-H522
[27] = system: OVCAR-4
[28] = system: K562
[29] = system: A498
[30] = system: ACHN
[31] = system: EKVX
[32] = system: 786-0
[33] = system: CAKI-1
[34] = system: OVCAR-5
[35] = system: OVCAR-8
[36] = system: SK-OV-3
[37] = system: A549
[38] = system: HL-60
[39] = system: NCI-H460
[40] = system: Hs-578T
[41] = system: SF-268
[42] = system: IGROV-1
[43] = system: SF-539
[44] = system: CCRF-CEM
[45] = system: COLO 205
[46] = system: UACC-257
[47] = system: NCI-H23
[48] = system: SN12C
[49] = system: LOX IMVI
[50] = system: HCT-15
[51] = system: MDA-MB-231
[52] = system: SK-MEL-28
[53] = system: SK-MEL-2
[54] = system: SF-295
[55] = system: NCI-H226
[56] = system: HOP-92
[57] = system: UO-31
[58] = system: RXF 393

With `COC(=O)C1=C(C(=O)NNc2ccccc2)N(c2cccnc2Cl)C(c2ccccc2)=CC1c1ccccc1` (stereo unspecified) the GI50 [1] was 14.1 µM (inactive), the GI50 [2] was 15.2 µM (inactive) and the GI50 [3] was 34 µM (inactive). The GI50 [4] was 56.8 µM (inactive), the GI50 [5] was 33.3 µM (inactive) and the GI50 [6] was > 100 µM (inactive). For the same compound, the GI50 [7] was > 100 µM (inactive), the GI50 [8] was 24 µM (inactive) and the GI50 [9] was 31.7 µM (inactive). The GI50 [10] was 27.8 µM (inactive), the GI50 [11] was 57.7 µM (inactive) and the GI50 [12] was 26.1 µM (inactive). For the same compound, the GI50 [13] was 29.5 µM (inactive), the GI50 [14] was 23.7 µM (inactive) and the GI50 [15] was 54.6 µM (inactive). The GI50 [16] was 34.9 µM (inactive), the GI50 [17] was 20.5 µM (inactive) and the GI50 [18] was 60.3 µM (inactive). For the same compound, the GI50 [19] was 80.9 µM (inactive), the GI50 [20] was 31.3 µM (inactive) and the GI50 [21] was 31.6 µM (inactive). For the same compound, the GI50 [22] was > 100 µM (inactive), the GI50 [23] was 58.6 µM (inactive) and the GI50 [24] was 29.6 µM (inactive). The GI50 [25] was 47.1 µM (inactive), the GI50 [26] was > 100 µM (inactive) and the GI50 [27] was > 100 µM (inactive). The GI50 [28] was 20 µM (inactive), the GI50 [29] was > 100 µM (inactive) and the GI50 [30] was 76.7 µM (inactive). For the same compound, the GI50 [31] was > 100 µM (inactive), the GI50 [32] was 86.3 µM (inactive) and the GI50 [33] was 56.5 µM (inactive). For the same compound, the GI50 [34] was > 100 µM (inactive), the GI50 [35] was > 100 µM (inactive) and the GI50 [36] was > 100 µM (inactive). For the same compound, the GI50 [37] was 40.9 µM (inactive), the GI50 [38] was 37.2 µM (inactive) and the GI50 [39] was 65.2 µM (inactive). The GI50 [40] was > 100 µM (inactive), the GI50 [41] was 88.1 µM (inactive) and the GI50 [42] was > 100 µM (inactive). The GI50 [43] was 72.4 µM (inactive), the GI50 [44] was 27.7 µM (inactive) and the GI50 [45] was 66.7 µM (inactive). The GI50 [46] was 41.4 µM (inactive), the GI50 [47] was 73.8 µM (inactive) and the GI50 [48] was > 100 µM (inactive). The GI50 [49] was 30.5 µM (inactive), the GI50 [50] was 39.3 µM and the GI50 [51] was 56.1 µM (inactive). For the same compound, the GI50 [52] was 48.2 µM (inactive), the GI50 [53] was 22.4 µM (inactive) and the GI50 [54] was 19.6 µM (inactive). For the same compound, the GI50 [55] was > 100 µM (inactive).

`CSC1=C(C#N)C(=O)N(c2ccc(C)cc2)C(=O)C1C#N` (stereo unspecified) was tested, and the GI50 [1] was > 100 µM (inactive), the GI50 [2] was > 100 µM (inactive) and the GI50 [3] was > 100 µM (inactive). The GI50 [4] was > 100 µM (inactive), the GI50 [5] was > 100 µM (inactive) and the GI50 [6] was > 100 µM (inactive). The GI50 [7] was > 100 µM (inactive), the GI50 [56] was 25 µM (inactive) and the GI50 [8] was > 100 µM (inactive). For the same compound, the GI50 [9] was > 100 µM (inactive), the GI50 [10] was > 100 µM (inactive) and the GI50 [11] was > 100 µM (inactive). The GI50 [57] was > 100 µM (inactive), the GI50 [12] was 41.2 µM (inactive) and the GI50 [13] was > 100 µM (inactive). For the same compound, the GI50 [14] was > 100 µM (inactive), the GI50 [15] was > 100 µM (inactive) and the GI50 [16] was > 100 µM (inactive). For the same compound, the GI50 [17] was > 100 µM (inactive), the GI50 [18] was > 100 µM (inactive) and the GI50 [19] was > 100 µM (inactive). For the same compound, the GI50 [20] was > 100 µM (inactive), the GI50 [21] was > 100 µM (inactive) and the GI50 [23] was > 100 µM (inactive). For the same compound, the GI50 [24] was > 100 µM (inactive), the GI50 [25] was > 100 µM (inactive) and the GI50 [26] was 29.7 µM (inactive). The GI50 [27] was > 100 µM (inactive), the GI50 [28] was > 100 µM (inactive) and the GI50 [29] was 82.4 µM (inactive). For the same compound, the GI50 [30] was > 100 µM (inactive), the GI50 [31] was > 100 µM (inactive) and the GI50 [32] was > 100 µM (inactive). The GI50 [33] was 30.9 µM (inactive), the GI50 [34] was > 100 µM (inactive) and the GI50 [36] was > 100 µM (inactive). For the same compound, the GI50 [37] was > 100 µM (inactive), the GI50 [38] was > 100 µM (inactive) and the GI50 [39] was > 100 µM (inactive). The GI50 [40] was 28.6 µM (inactive), the GI50 [41] was > 100 µM (inactive) and the GI50 [42] was > 100 µM (inactive). For the same compound, the GI50 [43] was > 100 µM (inactive), the GI50 [58] was > 100 µM (inactive) and the GI50 [44] was > 100 µM (inactive). The GI50 [45] was > 100 µM (inactive), the GI50 [46] was > 100 µM (inactive) and the GI50 [47] was > 100 µM (inactive). The GI50 [48] was > 100 µM (inactive), the GI50 [49] was > 100 µM (inactive) and the GI50 [50] was > 100 µM. The GI50 [51] was > 100 µM (inactive), the GI50 [52] was > 100 µM (inactive) and the GI50 [53] was > 100 µM (inactive). The GI50 [54] was > 100 µM (inactive) and the GI50 [55] was > 100 µM (inactive).
